Measured values from ChEMBL document CHEMBL3352227, “Synthesis, antimycobacterial and antibacterial evaluation of l-[(1R, 2S)-2-fluorocyclopropyl]fluoroquinolone derivatives containing an oxime functional moiety” (Eur J Med Chem, 2014).
In brackets after ≈: the same amount, converted by molar mass.

Columns and labels:
Assay type in all cases: functional
[1] = test system: Mycobacterium tuberculosis; assay: Antimycobacterial activity against Mycobacterium tuberculosis H37Rv ATCC 27294 by MABA method
[2] = test system: Escherichia coli; assay: Antibacterial activity against Escherichia coli ATCC 25922 after 18 to 24 hrs by standard twofold serial dilution method
[3] = test system: Escherichia coli; assay: Antibacterial activity against Escherichia coli 12-1 after 18 to 24 hrs by standard twofold serial dilution method
[4] = test system: Escherichia coli; assay: Antibacterial activity against extended-spectrum beta-lactamase producing Escherichia coli 12-2 after 18 to 24 hrs by standard twofold serial dilution method
[5] = test system: Escherichia coli; assay: Antibacterial activity against extended-spectrum beta-lactamase producing Escherichia coli 12-3 after 18 to 24 hrs by standard twofold serial dilution method
[6] = test system: Escherichia coli; assay: Antibacterial activity against extended-spectrum beta-lactamase producing Escherichia coli 12-14 after 18 to 24 hrs by standard twofold serial dilution method
[7] = test system: Escherichia coli; assay: Antibacterial activity against extended-spectrum beta-lactamase producing Escherichia coli 12-15 after 18 to 24 hrs by standard twofold serial dilution method
[8] = test system: Klebsiella pneumoniae; assay: Antibacterial activity against Klebsiella pneumoniae 12-1 after 18 to 24 hrs by standard twofold serial dilution method
[9] = test system: Klebsiella pneumoniae; assay: Antibacterial activity against Klebsiella pneumoniae 12-2 after 18 to 24 hrs by standard twofold serial dilution method
[10] = test system: Klebsiella pneumoniae; assay: Antibacterial activity against Klebsiella pneumoniae 12-4 after 18 to 24 hrs by standard twofold serial dilution method
[11] = test system: Klebsiella pneumoniae; assay: Antibacterial activity against extended-spectrum beta-lactamase producin Klebsiella pneumoniae 12-3 after 18 to 24 hrs by standard twofold serial dilution method
[12] = test system: Klebsiella pneumoniae; assay: Antibacterial activity against extended-spectrum beta-lactamase producin Klebsiella pneumoniae 12-4 after 18 to 24 hrs by standard twofold serial dilution method
[13] = test system: Klebsiella pneumoniae; assay: Antibacterial activity against extended-spectrum beta-lactamase producin Klebsiella pneumoniae 12-7 after 18 to 24 hrs by standard twofold serial dilution method
[14] = test system: Klebsiella pneumoniae; assay: Antibacterial activity against extended-spectrum beta-lactamase producin Klebsiella pneumoniae 12-14 after 18 to 24 hrs by standard twofold serial dilution method
[15] = test system: Pseudomonas aeruginosa; assay: Antibacterial activity against Pseudomonas aeruginosa 12-12 after 18 to 24 hrs by standard twofold serial dilution method
[16] = test system: Pseudomonas aeruginosa; assay: Antibacterial activity against Pseudomonas aeruginosa 12-14 after 18 to 24 hrs by standard twofold serial dilution method
[17] = test system: Staphylococcus aureus; assay: Antibacterial activity against Staphylococcus aureus ATCC 25923 after 18 to 24 hrs by standard twofold serial dilution method
[18] = test system: Staphylococcus aureus; assay: Antibacterial activity against methicillin-sensitive Staphylococcus aureus 12-1 after 18 to 24 hrs by standard twofold serial dilution method
[19] = test system: Staphylococcus aureus; assay: Antibacterial activity against methicillin-sensitive Staphylococcus aureus 12-2 after 18 to 24 hrs by standard twofold serial dilution method
[20] = test system: Staphylococcus aureus; assay: Antibacterial activity against methicillin-sensitive Staphylococcus aureus 12-4 after 18 to 24 hrs by standard twofold serial dilution method
[21] = test system: Staphylococcus aureus; assay: Antibacterial activity against methicillin-sensitive Staphylococcus aureus 12-5 after 18 to 24 hrs by standard twofold serial dilution method
[22] = test system: Staphylococcus aureus; assay: Antibacterial activity against methicillin-resistant Staphylococcus aureus 12-2 after 18 to 24 hrs by standard twofold serial dilution method
[23] = test system: Staphylococcus aureus; assay: Antibacterial activity against methicillin-resistant Staphylococcus aureus 12-4 after 18 to 24 hrs by standard twofold serial dilution method
[24] = test system: Staphylococcus aureus; assay: Antibacterial activity against methicillin-resistant Staphylococcus aureus 12-5 after 18 to 24 hrs by standard twofold serial dilution method
[25] = test system: Staphylococcus epidermidis; assay: Antibacterial activity against methicillin-sensitive Staphylococcus epidermidis 12-1 after 18 to 24 hrs by standard twofold serial dilution method
[26] = test system: Staphylococcus epidermidis; assay: Antibacterial activity against methicillin-sensitive Staphylococcus epidermidis 12-3 after 18 to 24 hrs by standard twofold serial dilution method
[27] = test system: Staphylococcus epidermidis; assay: Antibacterial activity against methicillin-sensitive Staphylococcus epidermidis 12-6 after 18 to 24 hrs by standard twofold serial dilution method
[28] = test system: Staphylococcus epidermidis; assay: Antibacterial activity against methicillin-sensitive Staphylococcus epidermidis 12-8 after 18 to 24 hrs by standard twofold serial dilution method
[29] = test system: Staphylococcus epidermidis; assay: Antibacterial activity against methicillin-resistant Staphylococcus epidermidis 12-1 after 18 to 24 hrs by standard twofold serial dilution method
[30] = test system: Staphylococcus epidermidis; assay: Antibacterial activity against methicillin-resistant Staphylococcus epidermidis 12-6 after 18 to 24 hrs by standard twofold serial dilution method
[31] = test system: Streptococcus pneumoniae; assay: Antibacterial activity against Streptococcus pneumoniae ATCC 49619 after 18 to 24 hrs by standard twofold serial dilution method
[32] = test system: Streptococcus pneumoniae; assay: Antibacterial activity against Streptococcus pneumoniae 12-18 after 18 to 24 hrs by standard twofold serial dilution method

SMILES | MIC [1] | MIC [2] | MIC [3] | MIC [4] | MIC [5] | MIC [6] | MIC [7] | MIC [8] | MIC [9] | MIC [10] | MIC [11] | MIC [12] | MIC [13] | MIC [14] | MIC [15] | MIC [16] | MIC [17] | MIC [18] | MIC [19] | MIC [20] | also measured
CO/N=C1/CN(c2nc3c(cc2F)c(=O)c(C(=O)O)cn3[C@@H]2C[C@@H]2F)[C@H]1CN | 1 µg/mL (≈ 2.54 µM) | 0.06 µg/mL (≈ 0.153 µM) | 1 µg/mL (≈ 2.54 µM) | 128 µg/mL (≈ 325 µM) | 16 µg/mL (≈ 40.7 µM) | 128 µg/mL (≈ 325 µM) | > 128 µg/mL | 0.25 µg/mL (≈ 0.636 µM) | 0.25 µg/mL (≈ 0.636 µM) | 0.25 µg/mL (≈ 0.636 µM) | 64 µg/mL (≈ 163 µM) | 8 µg/mL (≈ 20.3 µM) | 2 µg/mL (≈ 5.08 µM) | 128 µg/mL (≈ 325 µM) | 2 µg/mL (≈ 5.08 µM) | 32 µg/mL (≈ 81.4 µM) | 0.125 µg/mL (≈ 0.318 µM) | 0.06 µg/mL (≈ 0.153 µM) | 0.06 µg/mL (≈ 0.153 µM) | 0.03 µg/mL (≈ 0.0763 µM) | MIC [21]: 0.06 µg/mL (≈ 0.153 µM); MIC [22]: 32 µg/mL (≈ 81.4 µM); MIC [23]: 32 µg/mL (≈ 81.4 µM); MIC [24]: 32 µg/mL (≈ 81.4 µM); MIC [25]: 0.06 µg/mL (≈ 0.153 µM); MIC [26]: 0.5 µg/mL (≈ 1.27 µM); MIC [27]: 0.06 µg/mL (≈ 0.153 µM); MIC [28]: 2 µg/mL (≈ 5.08 µM); MIC [29]: 4 µg/mL (≈ 10.2 µM); MIC [30]: 4 µg/mL (≈ 10.2 µM); MIC [31]: 0.5 µg/mL (≈ 1.27 µM); MIC [32]: 2 µg/mL (≈ 5.08 µM)
CCO/N=C1/CN(c2cc3c(cc2F)c(=O)c(C(=O)O)cn3[C@@H]2C[C@@H]2F)CC1CN (stereo not given in full) | 0.25 µg/mL (≈ 0.595 µM) | 0.06 µg/mL (≈ 0.143 µM) | 0.5 µg/mL (≈ 1.19 µM) | 32 µg/mL (≈ 76.1 µM) | 16 µg/mL (≈ 38.1 µM) | 16 µg/mL (≈ 38.1 µM) | 128 µg/mL (≈ 304 µM) | 0.25 µg/mL (≈ 0.595 µM) | 0.25 µg/mL (≈ 0.595 µM) | 0.25 µg/mL (≈ 0.595 µM) | 16 µg/mL (≈ 38.1 µM) | 8 µg/mL (≈ 19 µM) | 1 µg/mL (≈ 2.38 µM) | 32 µg/mL (≈ 76.1 µM) | 0.25 µg/mL (≈ 0.595 µM) | 1 µg/mL (≈ 2.38 µM) | < 0.008 µg/mL | 0.06 µg/mL (≈ 0.143 µM) | 0.015 µg/mL (≈ 0.0357 µM) | 0.06 µg/mL (≈ 0.143 µM) | MIC [21]: 0.06 µg/mL (≈ 0.143 µM); MIC [22]: 8 µg/mL (≈ 19 µM); MIC [23]: 8 µg/mL (≈ 19 µM); MIC [24]: 8 µg/mL (≈ 19 µM); MIC [25]: 0.06 µg/mL (≈ 0.143 µM); MIC [26]: 0.25 µg/mL (≈ 0.595 µM); MIC [27]: 0.06 µg/mL (≈ 0.143 µM); MIC [28]: 0.5 µg/mL (≈ 1.19 µM); MIC [29]: 1 µg/mL (≈ 2.38 µM); MIC [30]: 1 µg/mL (≈ 2.38 µM); MIC [31]: 0.03 µg/mL (≈ 0.0714 µM); MIC [32]: 0.25 µg/mL (≈ 0.595 µM)
CCO/N=C1/CN(c2nc3c(cc2F)c(=O)c(C(=O)O)cn3[C@@H]2C[C@@H]2F)[C@H]1CN | 1 µg/mL (≈ 2.45 µM) | 0.125 µg/mL (≈ 0.307 µM) | 2 µg/mL (≈ 4.91 µM) | > 128 µg/mL | 16 µg/mL (≈ 39.3 µM) | 128 µg/mL (≈ 314 µM) | > 128 µg/mL | 0.5 µg/mL (≈ 1.23 µM) | 0.5 µg/mL (≈ 1.23 µM) | 0.25 µg/mL (≈ 0.614 µM) | 128 µg/mL (≈ 314 µM) | 8 µg/mL (≈ 19.6 µM) | 4 µg/mL (≈ 9.82 µM) | 64 µg/mL (≈ 157 µM) | 1 µg/mL (≈ 2.45 µM) | 32 µg/mL (≈ 78.6 µM) | 0.5 µg/mL (≈ 1.23 µM) | 0.5 µg/mL (≈ 1.23 µM) | 0.25 µg/mL (≈ 0.614 µM) | 0.25 µg/mL (≈ 0.614 µM) | MIC [21]: 0.5 µg/mL (≈ 1.23 µM); MIC [22]: 64 µg/mL (≈ 157 µM); MIC [23]: 64 µg/mL (≈ 157 µM); MIC [24]: 64 µg/mL (≈ 157 µM); MIC [25]: 0.5 µg/mL (≈ 1.23 µM); MIC [26]: 1 µg/mL (≈ 2.45 µM); MIC [27]: 0.25 µg/mL (≈ 0.614 µM); MIC [28]: 16 µg/mL (≈ 39.3 µM); MIC [29]: 16 µg/mL (≈ 39.3 µM); MIC [30]: 16 µg/mL (≈ 39.3 µM); MIC [31]: 0.5 µg/mL (≈ 1.23 µM); MIC [32]: 4 µg/mL (≈ 9.82 µM)
CO/N=C1/CN(c2cc3c(cc2F)c(=O)c(C(=O)O)cn3[C@@H]2C[C@@H]2F)[C@@H]1CN | 1 µg/mL (≈ 2.55 µM) | 0.06 µg/mL (≈ 0.153 µM) | 0.5 µg/mL (≈ 1.27 µM) | > 128 µg/mL | 128 µg/mL (≈ 326 µM) | 128 µg/mL (≈ 326 µM) | > 128 µg/mL | 1 µg/mL (≈ 2.55 µM) | 0.5 µg/mL (≈ 1.27 µM) | 0.25 µg/mL (≈ 0.637 µM) | 128 µg/mL (≈ 326 µM) | 16 µg/mL (≈ 40.8 µM) | 4 µg/mL (≈ 10.2 µM) | 128 µg/mL (≈ 326 µM) | 1 µg/mL (≈ 2.55 µM) | 64 µg/mL (≈ 163 µM) | 0.5 µg/mL (≈ 1.27 µM) | 0.5 µg/mL (≈ 1.27 µM) | 0.5 µg/mL (≈ 1.27 µM) | 0.25 µg/mL (≈ 0.637 µM) | MIC [21]: 0.5 µg/mL (≈ 1.27 µM); MIC [22]: 64 µg/mL (≈ 163 µM); MIC [23]: 128 µg/mL (≈ 326 µM); MIC [24]: 64 µg/mL (≈ 163 µM); MIC [25]: 0.5 µg/mL (≈ 1.27 µM); MIC [26]: 1 µg/mL (≈ 2.55 µM); MIC [27]: 0.5 µg/mL (≈ 1.27 µM); MIC [28]: 8 µg/mL (≈ 20.4 µM); MIC [29]: 16 µg/mL (≈ 40.8 µM); MIC [30]: 16 µg/mL (≈ 40.8 µM); MIC [31]: 0.5 µg/mL (≈ 1.27 µM); MIC [32]: 2 µg/mL (≈ 5.1 µM)
CCO/N=C1/CN(c2nc3c(cc2F)c(=O)c(C(=O)O)cn3[C@@H]2C[C@@H]2F)[C@@H]1CN | 4 µg/mL (≈ 9.82 µM) | 0.5 µg/mL (≈ 1.23 µM) | 2 µg/mL (≈ 4.91 µM) | > 128 µg/mL | 32 µg/mL (≈ 78.6 µM) | > 128 µg/mL | > 128 µg/mL | 1 µg/mL (≈ 2.45 µM) | 1 µg/mL (≈ 2.45 µM) | 1 µg/mL (≈ 2.45 µM) | > 128 µg/mL | 32 µg/mL (≈ 78.6 µM) | 8 µg/mL (≈ 19.6 µM) | > 128 µg/mL | 4 µg/mL (≈ 9.82 µM) | 128 µg/mL (≈ 314 µM) | 0.25 µg/mL (≈ 0.614 µM) | 0.5 µg/mL (≈ 1.23 µM) | 0.5 µg/mL (≈ 1.23 µM) | 0.25 µg/mL (≈ 0.614 µM) | MIC [21]: 0.5 µg/mL (≈ 1.23 µM); MIC [22]: > 128 µg/mL; MIC [23]: > 128 µg/mL; MIC [24]: > 128 µg/mL; MIC [25]: 0.5 µg/mL (≈ 1.23 µM); MIC [26]: 2 µg/mL (≈ 4.91 µM); MIC [27]: 0.5 µg/mL (≈ 1.23 µM); MIC [28]: 32 µg/mL (≈ 78.6 µM); MIC [29]: 64 µg/mL (≈ 157 µM); MIC [30]: 32 µg/mL (≈ 78.6 µM); MIC [31]: 2 µg/mL (≈ 4.91 µM); MIC [32]: 8 µg/mL (≈ 19.6 µM)
